≈ marks a conversion by molar mass, not a printed value.
Tests used:
Orexin receptor type 2 = target: T1, Orexin receptor type 2 (Homo sapiens, UniProt O43614)
T1 sequence (O43614 whole entry): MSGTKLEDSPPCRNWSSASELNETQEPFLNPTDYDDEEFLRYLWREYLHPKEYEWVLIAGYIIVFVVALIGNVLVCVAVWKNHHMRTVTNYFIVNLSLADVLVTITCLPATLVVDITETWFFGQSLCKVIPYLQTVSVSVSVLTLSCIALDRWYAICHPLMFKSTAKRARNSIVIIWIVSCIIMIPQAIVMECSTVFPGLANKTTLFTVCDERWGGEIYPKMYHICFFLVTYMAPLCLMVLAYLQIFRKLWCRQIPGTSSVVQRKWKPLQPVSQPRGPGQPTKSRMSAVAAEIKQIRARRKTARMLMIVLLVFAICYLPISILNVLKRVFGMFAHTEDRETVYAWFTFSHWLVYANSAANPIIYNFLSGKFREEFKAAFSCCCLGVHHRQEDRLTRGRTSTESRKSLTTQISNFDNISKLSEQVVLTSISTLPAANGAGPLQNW
Description: Antagonist activity at human OX2R expressed in CHO cells preincubated for 120 mins followed by orexin-A addition by FLIPR assay

[1] = target: T2, Orexin/Hypocretin receptor type 1 (Homo sapiens, UniProt O43613)
T2 sequence (O43613 whole entry): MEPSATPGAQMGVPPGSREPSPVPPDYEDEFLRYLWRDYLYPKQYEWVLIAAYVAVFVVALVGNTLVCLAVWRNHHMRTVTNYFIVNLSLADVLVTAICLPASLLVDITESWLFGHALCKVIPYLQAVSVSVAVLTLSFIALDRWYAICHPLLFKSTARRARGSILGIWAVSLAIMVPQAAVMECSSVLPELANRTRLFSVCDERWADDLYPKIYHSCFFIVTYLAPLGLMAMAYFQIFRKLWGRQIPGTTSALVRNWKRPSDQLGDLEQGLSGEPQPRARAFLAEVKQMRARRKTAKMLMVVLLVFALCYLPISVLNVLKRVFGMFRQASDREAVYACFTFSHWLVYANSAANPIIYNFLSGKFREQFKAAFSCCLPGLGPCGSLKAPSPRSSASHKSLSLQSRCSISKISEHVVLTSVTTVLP
Description: Antagonist activity at human OX1R expressed in CHO cells preincubated for 120 mins followed by orexin-A addition by FLIPR assay

in vitro [2] = conditions: human, liver microsomes
in vitro [3] = conditions: rat, liver microsomes
[4] = Apparent permeability across basal to apical side in MDCKI-MDR1 cells; type: ADME, cell-based, Canis lupus familiaris; conditions: dog, MDCK-MDR1
[5] = Solubility of compound in FeSSIF; type: ADME
[6] = Unbound drug concentration in Wistar rat plasma at 1 mg/kg, po measured after 1 hr by LC-tandem MS analysis; type: ADME, organism-based; conditions: in vivo
[7] = Apparent permeability across apical to basal side in MDCKI-MDR1 cells; type: ADME, cell-based, Canis lupus familiaris; conditions: dog, MDCK-MDR1
[8] = Drug concentration in cerebrospinal fluid of Wistar rat at 1 mg/kg, po measured after 1 hr by LC-tandem MS analysis; type: ADME, organism-based; conditions: read-out: Ct
[9] = Unbound drug concentration in Wistar rat brain at 1 mg/kg, po measured after 1 hr by LC-tandem MS analysis; type: ADME, organism-based; conditions: in vivo
[10] = Ratio of unbound drug concentration in Wistar rat brain to plasma at 1 mg/kg, po measured after 1 hr by LC-tandem MS analysis; type: ADME, organism-based; conditions: read-out: K(p,uu,brain)
in vitro [11] = conditions: dog, MDCK-MDR1
Description: Efflux ratio in MDCKI-MDR1 cells

[12] = target: T3, Orexin/Hypocretin receptor type 1 (Rattus norvegicus) (UniProt P56718); conditions: Wistar, dose 1.0 mg/kg, route po, time 1.0 hrs
T3 sequence (whole entry): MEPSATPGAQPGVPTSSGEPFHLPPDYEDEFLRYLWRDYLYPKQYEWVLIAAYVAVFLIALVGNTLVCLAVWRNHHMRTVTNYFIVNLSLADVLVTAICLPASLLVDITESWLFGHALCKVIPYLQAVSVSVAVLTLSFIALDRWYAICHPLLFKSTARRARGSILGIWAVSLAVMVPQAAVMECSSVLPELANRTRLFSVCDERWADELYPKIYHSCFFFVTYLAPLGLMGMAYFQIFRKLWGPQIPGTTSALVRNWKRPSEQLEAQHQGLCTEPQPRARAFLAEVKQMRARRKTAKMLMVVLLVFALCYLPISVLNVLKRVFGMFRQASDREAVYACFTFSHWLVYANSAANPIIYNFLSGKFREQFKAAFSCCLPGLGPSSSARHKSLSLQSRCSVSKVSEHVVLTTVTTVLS

Cytochrome P450 3A4 = Cytochrome P450 3A4 (Homo sapiens, UniProt P08684); experiment: Inhibition of CYP3A4 (unknown origin) using testosterone as substrate; type: ADME
Chain of Cytochrome P450 3A4 (P08684 whole entry): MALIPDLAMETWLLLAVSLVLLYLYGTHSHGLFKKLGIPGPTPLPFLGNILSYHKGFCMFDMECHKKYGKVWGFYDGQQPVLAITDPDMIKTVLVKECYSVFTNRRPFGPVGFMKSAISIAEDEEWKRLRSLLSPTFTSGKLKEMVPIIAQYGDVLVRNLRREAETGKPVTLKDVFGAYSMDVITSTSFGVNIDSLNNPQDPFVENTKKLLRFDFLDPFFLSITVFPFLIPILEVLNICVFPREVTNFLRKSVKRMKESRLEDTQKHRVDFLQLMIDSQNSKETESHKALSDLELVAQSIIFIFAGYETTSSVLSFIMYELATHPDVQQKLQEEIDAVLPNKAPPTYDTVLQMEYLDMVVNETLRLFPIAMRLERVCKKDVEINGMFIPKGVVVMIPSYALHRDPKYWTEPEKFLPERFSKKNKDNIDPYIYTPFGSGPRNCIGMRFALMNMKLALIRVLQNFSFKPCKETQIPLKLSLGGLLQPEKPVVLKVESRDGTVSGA

[13] = In vivo receptor occupancy at OX2R in Wistar rat brain at 30 mg/kg, po measured after 1 hr relative to control; type: functional
[14] = In vivo receptor occupancy at OX2R in Wistar rat brain at 100 mg/kg, po measured after 1 hr relative to control; type: functional
[15] = Unbound drug concentration in Wistar rat brain at 100 mg/kg, po measured after 1 hr by LC-tandem MS analysis; type: ADME, organism-based; conditions: in vivo
[16] = Unbound drug concentration in Wistar rat brain at 30 mg/kg, po measured after 1 hr by LC-tandem MS analysis; type: ADME, organism-based; conditions: in vivo
[17] = Drug concentration in Wistar rat Cerebrospinal fluid at 30 mg/kg, po measured after 1 hr by LC-tandem MS analysis; type: ADME, organism-based; conditions: read-out: Ct
[18] = Drug concentration in Wistar rat Cerebrospinal fluid at 100 mg/kg, po measured after 1 hr by LC-tandem MS analysis; type: ADME, organism-based; conditions: read-out: Ct

| SMILES | IC50 (Orexin receptor type 2) [nM] | IC50 [1] [nM] | microsomal CLint at 1 µM (in vitro [2]) [µL/min/mg] | further results |
| --- | --- | --- | --- | --- |
| O=C(c1c(F)cccc1-n1nccn1)N1CCOC[C@H]1Cc1cccc(-n2nccn2)c1 | 1550 | – | – | – |
| Cc1ccc(C(=O)N2C[C@@H](C)OC[C@H]2Cc2cccc(-n3nccn3)c2)c(-n2nccn2)c1 | 215 | 4 | 139 | – |
| Cc1ccc(-n2nccn2)c(C(=O)N2CCC[C@H]2Cc2cccc(-n3nccn3)c2)c1 | 7 | 0.7 | > 1250 | microsomal CLint at 1 µM (in vitro [3]): > 1250 µL/min/mg |
| Cc1ccc(C(=O)N2[C@H](Cc3cccc(-n4nccn4)c3)COC[C@@H]2C)c(-n2nccn2)c1 | 1830 | 34 | 239 | – |
| Cc1ccc(C(=O)N2C[C@H](C)OC[C@H]2Cc2cccc(-n3nccn3)c2)c(-n2nccn2)c1 | 265 | 11 | 322 | – |
| Cc1ccc(C(=O)N2CCOC[C@H]2Cc2cc(Cl)cc(-n3nccn3)c2)c(-n2nccn2)c1 | – | 1.9 | 89 | – |
| Cc1ccc(C(=O)N2CCOC[C@H]2Cc2cc(-n3nccn3)ccc2C)c(-n2nccn2)c1 | 1110 | 4.1 | 208 | – |
| O=C(c1ccccc1-c1ncccn1)N1CCC[C@H]1Cc1cccc(-n2nccn2)c1 | – | 4.4 | – | – |
| Cc1cccc(C(=O)N2CCOC[C@H]2Cc2cccc(-n3nccn3)c2)c1-n1nccn1 | – | 5.5 | 204 | microsomal CLint at 1 µM (in vitro [3]): > 1250 µL/min/mg; Papp B→A [4]: 66 ×10⁻⁶ cm/s; solubility [5]: 337 µg/mL (≈ 785 µM); Cp(f) [6]: 278 nM; Papp A→B [7]: 16.1 ×10⁻⁶ cm/s; concentration at 1 h [8]: 1000 nM; Drug uptake(free) [9]: 260 nM; Kp uu at 1 h [10]: 0.94 |
| Cc1cccc(-n2nccn2)c1C(=O)N1CCOC[C@H]1Cc1cccc(-n2nccn2)c1 | – | 109 | – | – |
| Cc1ccc(C(=O)N2CCOC[C@H]2Cc2cccc(-n3nccn3)c2)c(-n2nccn2)c1C | 2430 | 2.8 | 292 | microsomal CLint at 1 µM (in vitro [3]): > 1250 µL/min/mg; Papp B→A [4]: 59.4 ×10⁻⁶ cm/s; solubility [5]: 293 µg/mL (≈ 661 µM); efflux ratio (in vitro [11]): 5; Cp(f) [6]: 72 nM; Papp A→B [7]: 11.8 ×10⁻⁶ cm/s; concentration at 1 h [8]: 370 nM; Drug uptake(free) [9]: 147 nM; Kp uu at 1 h [10]: 2.04; Occ [12]: > 98% |
| Cc1ccc(-n2nccn2)c(C(=O)N2CCNC[C@H]2Cc2cccc(-n3nccn3)c2)c1 | 666 | – | – | IC50 (Cytochrome P450 3A4): 25000 nM |
| Cc1cccc(-c2ncncc2C(=O)N2CCC[C@H]2Cc2cccc(-n3nccn3)c2)c1 | – | 9.5 | – | – |
| O=C(c1ccccc1-n1nccn1)N1CCOC[C@H]1Cc1cccc(-n2nccn2)c1 | – | – | 59 | – |
| Cc1cccc(-c2sc(C)nc2C(=O)N2CCC[C@H]2Cc2cccc(-c3ncon3)c2)c1 | 4.4 | – | – | – |
| Cc1ccc(C(=O)N2CCO[C@H](C)[C@H]2Cc2cccc(-n3nccn3)c2)c(-n2nccn2)c1 | – | – | 301 | – |
| Cc1cccc(-c2sc(C)nc2C(=O)N2CCC[C@H]2Cc2cccc(-n3cccn3)c2)c1 | 20 | – | – | – |

| SMILES | IC50 (Orexin receptor type 2) [nM] | IC50 [1] [nM] | microsomal CLint at 1 µM (in vitro [2]) [µL/min/mg] | further results |
| --- | --- | --- | --- | --- |
| COc1ccc(C(=O)N2CCOC[C@H]2Cc2cccc(-n3nccn3)c2)c(-n2nccn2)c1 | 1430 | 6.2 | 157 | microsomal CLint at 1 µM (in vitro [3]): > 1250 µL/min/mg; Papp B→A [4]: 62.4 ×10⁻⁶ cm/s; efflux ratio (in vitro [11]): 7.2; Papp A→B [7]: 8.7 ×10⁻⁶ cm/s |
| O=C(c1ccccc1-n1nccn1)N1CCC[C@H]1Cc1cccc(-n2nccn2)c1 | – | 5.9 | – | – |
| Cc1ccc(C(=O)N2CCOC[C@H]2Cc2cccc(-n3nccn3)c2F)c(-n2nccn2)c1 | 2020 | 21 | 170 | – |
| Cc1ccc(C(=O)N2[C@H](Cc3cccc(-n4nccn4)c3)COC[C@H]2C)c(-n2nccn2)c1 | – | 1 | 623 | – |
| Cc1ccc(C(=O)N2CCOC[C@H]2Cc2cc(F)cc(-n3nccn3)c2)c(-n2nccn2)c1 | – | 3.5 | 164 | – |
| Cc1nc(C(=O)N2CCC[C@H]2Cc2cccc(-n3nccn3)c2)c(-c2ccc3c(c2)OCO3)s1 | 12 | 3.6 | – | – |
| O=C(c1cccc(F)c1-n1nccn1)N1CCOC[C@H]1Cc1cccc(-n2nccn2)c1 | – | – | 104 | – |
| Cc1ccc(-n2nccn2)c(C(=O)N2CCOC[C@H]2Cc2cccc(-n3nccn3)c2)c1 | 214 | 1.7 | 119 | microsomal CLint at 1 µM (in vitro [3]): > 1250 µL/min/mg; Papp B→A [4]: 55.9 ×10⁻⁶ cm/s; solubility [5]: 46 µg/mL (≈ 107 µM); Cp(f) [6]: 36 nM; Papp A→B [7]: 15.3 ×10⁻⁶ cm/s; concentration at 1 h [8]: 51 nM; Drug uptake(free) [9]: 19 nM; Kp uu at 1 h [10]: 0.53; Occ [12]: > 91% |
| O=C(c1ccc(F)cc1-n1nccn1)N1CCOC[C@H]1Cc1cccc(-n2nccn2)c1 | 1040 | 37 | 101 | – |
| O=C(c1cc(F)ccc1-n1nccn1)N1CCOC[C@H]1Cc1cccc(-n2nccn2)c1 | – | – | 227 | – |
| Cc1ccc(-n2nccn2)c(C(=O)N2CCCC[C@H]2Cc2cccc(-n3nccn3)c2)c1 | 1.7 | – | 634 | microsomal CLint at 1 µM (in vitro [3]): > 1250 µL/min/mg |
| COc1ccc(-n2nccn2)c(C(=O)N2CCOC[C@H]2Cc2cccc(-n3nccn3)c2)c1 | 784 | 3 | 121 | microsomal CLint at 1 µM (in vitro [3]): > 1250 µL/min/mg; Papp B→A [4]: 60.6 ×10⁻⁶ cm/s; efflux ratio (in vitro [11]): 10; Papp A→B [7]: 6.1 ×10⁻⁶ cm/s |
| Cc1ccc(C(=O)N2CCOC[C@H]2Cc2cc(-n3nccn3)ccc2F)c(-n2nccn2)c1 | – | – | 99 | Occ [13]: 13%; Occ [14]: 82%; Drug uptake(free) [15]: 307 nM; Cp(f) [6]: 177 nM; Drug uptake(free) [16]: 10 nM; concentration at 1 h [17]: 45 nM; concentration at 1 h [8]: 550 nM; concentration at 1 h [18]: 550 nM; Drug uptake(free) [9]: 307 nM; Kp uu at 1 h [10]: 1.73 |
| Cc1ccc(C(=O)N2CCO[C@@H](C)[C@H]2Cc2cccc(-n3nccn3)c2)c(-n2nccn2)c1 | – | – | 327 | – |
| Cc1ccc(C(=O)N2CCOC[C@H]2Cc2ccc(C)c(-n3nccn3)c2)c(-n2nccn2)c1 | 184 | 1.4 | 391 | – |
| Cc1nc(C(=O)N2CCC[C@H]2Cc2cccc(-n3nccn3)c2)c(-c2ccc(F)cc2)s1 | 100 | 17 | – | – |
| Cc1ccc(C(=O)N2CCOC[C@H]2Cc2cc(-n3nccn3)ccc2Cl)c(-n2nccn2)c1 | 595 | 3.1 | 158 | – |

From ChEMBL document CHEMBL5537208 (J Med Chem, 2024)
